The nature of the data set: gradient 5% acetonitrile 3 min, to 50% in 2 min, to 85% in 15 min, held 3 min, 100 µL/min. The settings on record: column: Zorbax Extend-C18 2.1 x 50 mm; eluents: water / acetonitrile, 0.1% formic acid. An outline of the steps: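 Over 3 months, pure standards in mixtures of ~100 molecules were run by HPLC coupled to a quadrupole time-of-flight mass spectrometer in positive and negative ionization mode. The column was a Zorbax Extend-C18 (2.1 × 50 mm, 1.8 μm) at 100 μL/min, eluted with water and acetonitrile each holding 0.1% formic acid, with 40 μL dead and 900 μL dwell volumes. Retention time was determined from adduct peaks chosen by software and checked manually.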
Regarding `O=C(c1sc2ncccc2c1-n1cccc1)N1CCN(Cc2ccccc2)CC1`, the RP-LC retention time stood at 648 s.

As for `Cc1ccc(-c2nnc(C)c(NCc3ccccn3)n2)cc1`, the RP-LC retention time amounted to 605 s.

On to `Cc1ccc(N2CCC(NC(=O)c3cccs3)C2=O)cc1C` (stereo not given), for which the RP-LC retention time was 827 s.

As for `O=C(NCc1ccc(C(F)(F)F)cc1)c1cn2c(n1)CCCC2`, the RP-LC retention time came to 646 s.

In the case of `CNC(=O)C1CCCN(c2nc3ncn(CC(=O)Nc4ccccc4)c(=O)c3s2)C1` (stereo not given), the RP-LC retention time was 634 s.

Consider `O=C(Cc1c[nH]c2ncccc12)NCC1CCCCC1`, for which the RP-LC retention time was 644 s.

Compound `COCC(=O)N1CC(c2nc(-c3ccc(F)cc3)no2)C2(CCOCC2)C1` (stereo not given) came in with an RP-LC retention time of 731 s.

With `O=C(Nc1cccs1)Nc1ccccc1NC(=O)c1ccco1`, the RP-LC retention time was determined as 716 s.

As to `CCSc1nnc(NC(=O)C2CCN(S(=O)(=O)c3ccc4c(c3)sc(=O)n4C)CC2)s1`, the RP-LC retention time came out at 862 s.

`CCNC(=O)N1CCc2c([nH]c3ccc(C)cc23)C12C(=O)N(C)c1ccccc12` (stereo not given) yielded an RP-LC retention time of 798 s.

In turn, `Cc1nc2cc(-c3noc(Cc4ccc(Cl)cc4)n3)ccc2o1` displayed an RP-LC retention time of 1070 s.

The compound `CCCn1c(=O)sc2cc(S(=O)(=O)N3CCC(C(=O)Nc4ccccc4OC)CC3)ccc21` had an RP-LC retention time of 1000 s.

As to `COc1ccc(-c2cc3c4nnc(CCC(=O)N5CCC(C(N)=O)CC5)n4ccn3n2)cc1`, the RP-LC retention time was determined as 613 s.

The compound `O=C(CSc1nnc(-c2ccccc2)c(-c2ccccc2)n1)Nc1nccs1` displayed an RP-LC retention time of 840 s.

Take `COc1ccccc1-c1noc(C2CCCN2C(=O)c2cnccn2)n1` (stereo not given): the RP-LC retention time was 720 s.

Consider `CCCN(C(=O)c1ccccc1OC)c1nc(-c2ccccc2)cs1`, for which the RP-LC retention time is 1310 s.

On to `COc1c(C(=O)NC(C)C)sc2ccc(Cl)cc12`, for which the RP-LC retention time was determined as 1060 s.

Take `CC(C)N1C(=O)c2cccnc2Sc2cc(NC(=O)c3ccccc3)ccc21`: the RP-LC retention time was found to be 864 s.

For `CCn1cnc(S(=O)(=O)N2CCC(C(=O)NC3CCCCCC3)CC2)c1`, the RP-LC retention time came out at 737 s.

Take `CN1C(=O)C(C)(C(=O)NC2CCCCC2)Oc2cccnc21` (stereo not given): the RP-LC retention time is 784 s.

As for `CN(CCc1noc(COc2ccc(Cl)cc2)n1)C(=O)c1ccco1`, the RP-LC retention time was 856 s.

Compound `N#Cc1ccc(C(=O)N2CCCC2c2nc(-c3cccc(C(F)(F)F)c3)no2)c(F)c1` (stereo not given) came in with an RP-LC retention time of 1060 s.

Compound `O=C(CN1C(=O)C(C(=O)N2CCCCC2)Sc2ccccc21)N1CCN(c2ccccc2F)CC1` (stereo not given) showed an RP-LC retention time of 960 s.

`CCc1ccccc1NC(=O)Cn1nc2cc(C)nc(Nc3ccc(F)cc3)n2c1=O` came in with an RP-LC retention time of 1040 s.

As to `COc1ccc2c(c1)C1(CCN(S(=O)(=O)c3cccs3)C1)C(=O)N2` (stereo not given), the RP-LC retention time amounted to 790 s.

Regarding `O=c1c2sccc2n(Cc2nc(-c3cccc(Br)c3)no2)c(=O)n1-c1cccc(F)c1`, the RP-LC retention time is 1080 s.

`COCCn1c(CC2CCN(C(=O)Nc3ccc(F)c(Cl)c3)C2)nc2cccnc21` (stereo not given) yielded an RP-LC retention time of 660 s.

As for `CCCNC(=O)C1CCCN(c2ccc(SCC(=O)Nc3ccccc3Cl)nn2)C1` (stereo not given), the RP-LC retention time worked out at 617 s.

With `CCOC(=O)c1cnc2nc(C)ccc2c1Nc1ccc(F)cc1F`, the RP-LC retention time worked out at 716 s.

In turn, `Cc1ccsc1CN1CCC(Cn2c(C)cnc2C)CC1` registered an RP-LC retention time of 521 s.

As for `COc1ccccc1N1CCN(c2cc(SCC(=O)Nc3cccc(C#N)c3)ncn2)CC1`, the RP-LC retention time was 895 s.

In the case of `Cc1cccc(-c2noc(Cn3c(=O)n(-c4cccc(C)c4)c(=O)c4sccc43)n2)c1`, the RP-LC retention time came out at 1090 s.

Compound `Cc1ccc(-c2noc(Cn3ccn(-c4ccccc4)c(=O)c3=O)n2)cc1C` came in with an RP-LC retention time of 897 s.

`Cn1c(=O)c2nc(SCCC(=O)Nc3ccc(F)cc3)n(C)c2n(C)c1=O` gave an RP-LC retention time of 690 s.

Compound `COc1cccc2c1[C@@H]1CN(CCCCN3C(=O)NC4C(SC5NCC(c6ccccc6)NC54)C3=O)C[C@@H]1CO2` (stereo not given in full) displayed an RP-LC retention time of 902 s.

The compound `CCOC(=O)c1cccc(NC(=O)C2CCN(S(=O)(=O)c3ccc4[nH]c(=O)ccc4c3)CC2)c1` displayed an RP-LC retention time of 768 s.

`O=C(CCc1ccccc1)Nc1cnc(N2CCOCC2)nc1` registered an RP-LC retention time of 744 s.

Consider `CCOC[C@@H]1CC(F)(F)CN1C1CCN(Cc2ccc3cc[nH]c3c2)CC1`, for which the RP-LC retention time was determined as 656 s.

For `O=C(C1=NN(Cc2ccccc2)c2ccc(Cl)cc2S1(=O)=O)N1CCOCC1`, the RP-LC retention time was 824 s.

The compound `CCC(C)NS(=O)(=O)c1cc(-c2cc(C(F)(F)F)on2)sc1C` (stereo not given) displayed an RP-LC retention time of 1140 s.

`COc1ccc(N2CCN(S(=O)(=O)N(C)C)CC2)cc1` had an RP-LC retention time of 736 s.

Compound `CSc1ncccc1C(=O)NCc1ccc2c(c1)ncn2C(C)C` had an RP-LC retention time of 585 s.

For the compound `O=C(Nc1ncc(Cc2ccc(Cl)cc2)s1)c1ccco1`, the RP-LC retention time was found to be 869 s.

With `CC(C)N1CCn2cc(S(=O)(=O)Nc3ccc(Cl)cc3)cc2C1=O`, the RP-LC retention time came to 805 s.

Compound `CCc1nc2ccc(-c3noc(CNS(=O)(=O)c4ccccc4)n3)cc2n1CC` had an RP-LC retention time of 653 s.

`COCC(C)(O)CNC(=O)c1ccco1` (stereo not given) displayed an RP-LC retention time of 549 s.

`O=C(NCc1cccc(Cl)c1)C1CCCN(c2ncnc3c2nc2n3CCCCC2)C1` (stereo not given) had an RP-LC retention time of 804 s.

Compound `COCCN1CC2(CCN(S(=O)(=O)c3cccc(Cl)c3)CC2)C1c1ccccc1` (stereo not given) showed an RP-LC retention time of 730 s.

Take `CCc1nnc(NS(=O)(=O)c2ccc(N)cc2)s1`: the RP-LC retention time was determined as 711 s.

Turning to `O=C1NCCCn2cc(S(=O)(=O)N(Cc3ccccc3)c3ccccc3)cc21`, the RP-LC retention time was found to be 808 s.

Regarding `CCS(=O)(=O)Nc1ccc(C2(C(=O)NCC3CCCO3)CCCCC2)cc1` (stereo not given), the RP-LC retention time was 781 s.

Consider `COC(=O)c1ccccc1NC(=O)CN1C(=O)CN=C(c2ccccc2)c2ccccc21`, for which the RP-LC retention time came out at 958 s.

The compound `CCn1cc(-c2ccc(C)cc2)cc1C(=O)NCCCN1CCOCC1` returned an RP-LC retention time of 693 s.

On to `O=C(NCCc1noc(C2CC2)n1)c1ccco1`, for which the RP-LC retention time turned out to be 664 s.

For `Cc1ccc(-n2nc3c(N4CCN(C(=O)NCC5CCCO5)CC4)nnc(C)c3c2C)cc1` (stereo not given), the RP-LC retention time was found to be 590 s.

As to `CC(C)c1cccc(C(C)C)c1N1C(=O)c2ccc(O)cc2C1=O`, the RP-LC retention time worked out at 1130 s.

`CC(C)CN(CC(C)C)c1nc(-c2ccc([N+](=O)[O-])cc2)nc2ccccc12` yielded an RP-LC retention time of 1250 s.

`Cc1ccc(NC(=O)C2CCN(S(=O)(=O)c3cc(-c4noc(C5CC5)n4)cs3)CC2)cc1`: the RP-LC retention time was 1050 s.

Take `CCC1Oc2ccc(C)cc2N(CC(=O)NCCCN2CC(C)CC(C)C2)C1=O` (stereo not given): the RP-LC retention time was 708 s.

`COc1ccccc1Cc1noc(C2CN(S(=O)(=O)c3ccc(F)c(Cl)c3)C2)n1` returned an RP-LC retention time of 1030 s.

Turning to `O=C(Nc1ccc(Nc2ccncc2)cc1)c1ccc(Nc2ccnc3ccc([N+](=O)[O-])cc23)cc1[N+](=O)[O-]`, the RP-LC retention time came to 651 s.

`CCCNC(=O)C1CCN(c2nccnc2Sc2cccc(C)c2)CC1` gave an RP-LC retention time of 946 s.

Compound `c1ccc(-c2nc3nccc(-c4ccccn4)n3n2)cc1` showed an RP-LC retention time of 820 s.

Compound `CC1CCN(C(=O)c2cc(S(=O)(=O)N(C)CC(=O)NC(C)C)cn2C)CC1` came in with an RP-LC retention time of 723 s.

For the compound `COc1ccc(C)cc1NC(=O)c1cn2c(n1)CSCC2`, the RP-LC retention time worked out at 841 s.

As to `CC(=O)Nc1ccc(C(=O)NCCNC(=O)CC(c2ccccc2)c2ccccc2)cc1`, the RP-LC retention time came to 697 s.

Consider `CCCC(=O)N1CCCC(c2nc(CNC(=O)C(C)C)cs2)C1` (stereo not given), for which the RP-LC retention time was determined as 671 s.

Turning to `O=C(Nc1cccc(F)c1)N1CCC(N2CCN(Cc3ccccc3)C2=O)CC1`, the RP-LC retention time stood at 827 s.

In turn, `Cc1ccc(Cl)cc1NS(=O)(=O)c1c(C)sc(C)c1-c1cc(C(F)(F)F)on1` returned an RP-LC retention time of 1220 s.

In the case of `O=C(NCCc1ccccc1)c1ccc2c(cnn2CC(=O)N2CCCCCC2)c1`, the RP-LC retention time is 791 s.

`CCOC(=O)N1CCN(Cc2nc(-c3ccc(N4CCC(C)CC4)nc3)no2)CC1` gave an RP-LC retention time of 847 s.

The compound `Cc1noc(C)c1CC(=O)NCC12CCC=C1NC(=O)CC2` (stereo not given) had an RP-LC retention time of 632 s.

In turn, `O=c1n(CCOc2ccccc2)nc2c(S(=O)(=O)N3CCN(c4ccc(F)cc4)CC3)cccn12` yielded an RP-LC retention time of 1000 s.

On to `O=S(=O)(Cc1ccc(Cl)cc1)N1CCc2nc(-c3ccc(F)cc3)ncc2C1`, for which the RP-LC retention time came to 1100 s.

`CCOc1ccc(-c2noc(Cn3c(=O)n(CCCOC)c(=O)c4ccccc43)n2)cc1` gave an RP-LC retention time of 1050 s.

`Cc1ccccc1-c1nnc(CSc2nnc(NC(=O)c3ccc(C(F)(F)F)cc3)s2)o1`: the RP-LC retention time was 1050 s.

`Cc1ccc(C(=O)CC2(O)C(=O)Nc3ccccc32)cc1` (stereo not given) showed an RP-LC retention time of 704 s.

For the compound `CCOC(=O)C(Cc1ccc(O)cc1)Nc1nc2ccccc2o1` (stereo not given), the RP-LC retention time came out at 846 s.

As for `Cc1noc(C)c1-c1ccc(S(=O)(=O)NCC2CCCO2)cc1` (stereo not given), the RP-LC retention time worked out at 767 s.

`CCC(C(=O)NCc1ccccn1)n1c2ccccc2c2cnn(C)c(=O)c21` (stereo not given) came in with an RP-LC retention time of 634 s.

The record behind these values is the METLIN SMRT retention time set (Domingo-Almenara et al. 2019).
